# Results reported in the kinase profiling compilation of Christmann-Franck et al. (2016).
# Values joined by “and” are separate entries in the source; they are usually repeats but may differ in a detail not shown here. Equal values may be shown once.
# Experiments:
# Experiment in all cases: radiometric filter-binding kinase assay, Kinase HotSpot
# Settings in all cases: compound 0.5 µM; ATP 10 µM
# ABL2 (human) = ABL2 (human) (UniProt P42684)
# ACVR1 (human) = ACVR1 (human) (UniProt Q04771)
# ADRBK1 (human) = ADRBK1 (human) (UniProt P25098)
# AKT3 (human) = AKT3 (human) (UniProt Q9Y243)
# CAMK1 (human) = CAMK1 (human) (UniProt Q14012)
# CAMK1D (human) = CAMK1D (human) (UniProt Q8IU85)
# CAMK2B (human) = CAMK2B (human) (UniProt Q13554)
# CAMKK2 (human) = CAMKK2 (human) (UniProt Q96RR4)
# CDK1 CCNA2 (human) = CDK1 CCNA2 (human) (UniProt P06493+P20248)
# CDK2 CCNE1 (human) = CDK2 CCNE1 (human) (UniProt P24941+P24864)
# CDK4 CCND1 (human) = CDK4 CCND1 (human) (UniProt P24385+P11802)
# CDK4 CCND3 (human) = CDK4 CCND3 (human) (UniProt P30281+P11802)
# CDK9 CCNT1 (human) = CDK9 CCNT1 (human) (UniProt P50750+O60563)
# CLK2 (human) = CLK2 (human) (UniProt P49760)
# CSNK1G3 (human) = CSNK1G3 (human) (UniProt Q9Y6M4)
# EGFR (human) = EGFR (human) (UniProt P00533)
# EPHA7 (human) = EPHA7 (human) (UniProt Q15375)
# GRK6 (human) = GRK6 (human) (UniProt P43250)
# GRK7 (human) = GRK7 (human) (UniProt Q8WTQ7)
# Chain of GRK7 (human) (Q8WTQ7 whole entry, looked up): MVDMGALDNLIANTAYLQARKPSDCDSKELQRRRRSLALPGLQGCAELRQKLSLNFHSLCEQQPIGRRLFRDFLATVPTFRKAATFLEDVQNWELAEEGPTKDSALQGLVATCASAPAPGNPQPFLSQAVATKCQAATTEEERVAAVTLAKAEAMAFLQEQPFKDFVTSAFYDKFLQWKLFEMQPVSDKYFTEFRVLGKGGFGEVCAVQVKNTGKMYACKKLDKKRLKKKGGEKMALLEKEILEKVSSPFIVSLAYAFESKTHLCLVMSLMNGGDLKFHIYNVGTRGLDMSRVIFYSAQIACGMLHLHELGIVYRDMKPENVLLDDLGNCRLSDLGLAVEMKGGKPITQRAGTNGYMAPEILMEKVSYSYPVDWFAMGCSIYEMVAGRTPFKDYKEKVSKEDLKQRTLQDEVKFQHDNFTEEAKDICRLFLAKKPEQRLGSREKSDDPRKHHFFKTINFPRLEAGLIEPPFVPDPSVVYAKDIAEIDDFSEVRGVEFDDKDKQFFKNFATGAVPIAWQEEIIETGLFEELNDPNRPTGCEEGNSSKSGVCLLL
# HIPK4 (human) = HIPK4 (human) (UniProt Q8NE63)
# IKBKE (human) = IKBKE (human) (UniProt Q14164)
# LIMK1 (human) = LIMK1 (human) (UniProt P53667)
# MAP3K14 (human) = MAP3K14 (human) (UniProt Q99558)
# MAP4K5 (human) = MAP4K5 (human) (UniProt Q9Y4K4)
# MARK1 (human) = MARK1 (human) (UniProt Q9P0L2)
# MET (human) = MET (human) (UniProt P08581)
# MLTK (human) = MLTK (human) (UniProt Q9NYL2)
# MST1R (human) = MST1R (human) (UniProt Q04912)
# NEK4 (human) = NEK4 (human) (UniProt P51957)
# NEK7 (human) = NEK7 (human) (UniProt Q8TDX7)
# Chain of NEK7 (human) (Q8TDX7 whole entry, looked up): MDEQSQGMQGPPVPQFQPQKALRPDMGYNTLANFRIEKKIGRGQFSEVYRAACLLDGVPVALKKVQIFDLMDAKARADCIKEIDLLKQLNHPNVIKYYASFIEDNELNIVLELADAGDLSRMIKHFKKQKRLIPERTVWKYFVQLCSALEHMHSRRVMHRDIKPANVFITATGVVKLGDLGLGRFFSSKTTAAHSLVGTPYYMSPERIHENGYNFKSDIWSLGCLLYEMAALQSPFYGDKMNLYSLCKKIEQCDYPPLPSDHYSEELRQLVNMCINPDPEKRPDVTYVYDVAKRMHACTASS
# NTRK3 (human) = NTRK3 (human) (UniProt Q16288)
# Chain of NTRK3 (human) (Q16288 whole entry, looked up): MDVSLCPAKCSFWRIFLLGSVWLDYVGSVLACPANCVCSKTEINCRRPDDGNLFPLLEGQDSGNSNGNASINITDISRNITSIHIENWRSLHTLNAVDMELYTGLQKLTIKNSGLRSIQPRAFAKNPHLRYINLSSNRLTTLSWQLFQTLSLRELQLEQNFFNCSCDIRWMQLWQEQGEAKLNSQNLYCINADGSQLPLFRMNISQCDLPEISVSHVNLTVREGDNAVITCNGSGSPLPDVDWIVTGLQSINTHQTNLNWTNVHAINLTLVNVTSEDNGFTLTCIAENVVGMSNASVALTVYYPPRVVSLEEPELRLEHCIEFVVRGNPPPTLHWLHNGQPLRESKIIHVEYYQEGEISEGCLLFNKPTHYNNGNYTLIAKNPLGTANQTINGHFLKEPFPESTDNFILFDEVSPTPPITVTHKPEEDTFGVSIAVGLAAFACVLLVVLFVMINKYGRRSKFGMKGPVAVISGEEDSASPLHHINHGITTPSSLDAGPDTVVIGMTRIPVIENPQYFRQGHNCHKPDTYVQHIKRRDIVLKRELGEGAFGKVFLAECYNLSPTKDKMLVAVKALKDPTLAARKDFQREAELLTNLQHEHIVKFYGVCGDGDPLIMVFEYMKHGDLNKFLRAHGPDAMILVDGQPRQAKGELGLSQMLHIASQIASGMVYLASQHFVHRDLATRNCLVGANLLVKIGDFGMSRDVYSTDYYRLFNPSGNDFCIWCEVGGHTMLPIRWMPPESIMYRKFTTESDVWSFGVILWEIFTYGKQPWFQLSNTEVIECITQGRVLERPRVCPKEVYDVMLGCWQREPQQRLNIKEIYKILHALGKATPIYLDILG
# PHKG1 (human) = PHKG1 (human) (UniProt Q16816)
# PRKCB2 (human) = PRKCB2 (human) (UniProt P05771)
# Chain of PRKCB2 (human) (P05771 whole entry, looked up): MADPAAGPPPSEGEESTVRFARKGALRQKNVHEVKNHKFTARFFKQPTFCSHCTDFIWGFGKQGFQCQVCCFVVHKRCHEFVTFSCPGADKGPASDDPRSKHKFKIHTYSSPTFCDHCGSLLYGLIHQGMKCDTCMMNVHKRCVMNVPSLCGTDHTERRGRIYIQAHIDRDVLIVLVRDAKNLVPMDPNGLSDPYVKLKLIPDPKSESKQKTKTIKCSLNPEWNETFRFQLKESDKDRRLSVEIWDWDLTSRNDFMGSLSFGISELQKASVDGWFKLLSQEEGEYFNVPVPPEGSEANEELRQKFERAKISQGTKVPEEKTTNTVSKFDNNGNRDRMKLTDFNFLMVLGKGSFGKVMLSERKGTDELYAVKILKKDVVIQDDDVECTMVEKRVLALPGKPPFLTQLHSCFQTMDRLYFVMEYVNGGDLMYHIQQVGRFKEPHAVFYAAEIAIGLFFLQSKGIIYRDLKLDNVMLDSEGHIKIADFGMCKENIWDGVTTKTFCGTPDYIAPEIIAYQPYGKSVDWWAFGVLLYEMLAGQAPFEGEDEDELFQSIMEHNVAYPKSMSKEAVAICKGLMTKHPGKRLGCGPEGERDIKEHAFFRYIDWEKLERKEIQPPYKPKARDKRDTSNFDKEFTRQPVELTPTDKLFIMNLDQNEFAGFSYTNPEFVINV
# PRKCE (human) = PRKCE (human) (UniProt Q02156)
# PRKD1 (human) = PRKD1 (human) (UniProt Q15139)
# Chain of PRKD1 (human) (Q15139 whole entry, looked up): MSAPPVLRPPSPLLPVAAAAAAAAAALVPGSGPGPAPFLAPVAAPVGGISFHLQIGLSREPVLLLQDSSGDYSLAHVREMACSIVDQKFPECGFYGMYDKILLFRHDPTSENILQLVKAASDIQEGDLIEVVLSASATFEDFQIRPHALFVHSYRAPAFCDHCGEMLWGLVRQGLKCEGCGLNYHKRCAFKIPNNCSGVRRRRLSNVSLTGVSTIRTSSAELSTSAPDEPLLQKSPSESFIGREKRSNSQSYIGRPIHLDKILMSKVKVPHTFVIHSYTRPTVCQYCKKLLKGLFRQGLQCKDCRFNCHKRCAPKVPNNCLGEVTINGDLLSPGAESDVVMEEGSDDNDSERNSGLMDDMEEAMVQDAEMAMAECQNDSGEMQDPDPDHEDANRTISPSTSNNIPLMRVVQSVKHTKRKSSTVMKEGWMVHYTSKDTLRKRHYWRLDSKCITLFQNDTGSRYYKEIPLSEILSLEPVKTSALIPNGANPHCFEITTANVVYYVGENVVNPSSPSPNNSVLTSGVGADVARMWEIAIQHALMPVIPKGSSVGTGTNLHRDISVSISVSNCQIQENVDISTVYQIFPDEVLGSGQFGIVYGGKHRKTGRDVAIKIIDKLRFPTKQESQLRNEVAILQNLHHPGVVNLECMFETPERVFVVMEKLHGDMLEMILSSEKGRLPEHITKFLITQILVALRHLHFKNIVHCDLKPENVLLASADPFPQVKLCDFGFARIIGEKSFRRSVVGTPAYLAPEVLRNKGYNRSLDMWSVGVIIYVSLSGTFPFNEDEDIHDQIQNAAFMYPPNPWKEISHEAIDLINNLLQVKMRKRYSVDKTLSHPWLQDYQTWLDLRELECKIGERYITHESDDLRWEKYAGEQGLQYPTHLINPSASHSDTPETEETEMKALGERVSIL
# PRKG1 (human) = PRKG1 (human) (UniProt Q13976)
# PTK2 (human) = PTK2 (human) (UniProt Q05397)
# STK10 (human) = STK10 (human) (UniProt O94804)
# STK11 (human) = STK11 (human) (UniProt Q15831)
# Chain of STK11 (human) (Q15831 whole entry, looked up): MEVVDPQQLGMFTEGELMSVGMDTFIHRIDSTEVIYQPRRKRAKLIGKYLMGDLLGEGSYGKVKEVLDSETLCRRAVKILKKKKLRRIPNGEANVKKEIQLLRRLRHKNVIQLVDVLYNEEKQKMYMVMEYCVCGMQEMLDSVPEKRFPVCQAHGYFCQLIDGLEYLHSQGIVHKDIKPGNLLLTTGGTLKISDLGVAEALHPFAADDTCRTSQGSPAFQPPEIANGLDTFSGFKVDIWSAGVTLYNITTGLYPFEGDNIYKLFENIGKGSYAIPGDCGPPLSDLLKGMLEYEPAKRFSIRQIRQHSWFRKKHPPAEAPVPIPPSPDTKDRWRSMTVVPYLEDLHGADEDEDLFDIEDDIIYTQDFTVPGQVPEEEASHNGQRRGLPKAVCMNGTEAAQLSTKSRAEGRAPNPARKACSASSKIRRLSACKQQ
# STK39 (human) = STK39 (human) (UniProt Q9UEW8)
# TGFBR1 (human) = TGFBR1 (human) (UniProt P36897)
# TSSK2 (human) = TSSK2 (human) (UniProt Q96PF2)
# Chain of ABL2 (human) (P42684 whole entry, looked up): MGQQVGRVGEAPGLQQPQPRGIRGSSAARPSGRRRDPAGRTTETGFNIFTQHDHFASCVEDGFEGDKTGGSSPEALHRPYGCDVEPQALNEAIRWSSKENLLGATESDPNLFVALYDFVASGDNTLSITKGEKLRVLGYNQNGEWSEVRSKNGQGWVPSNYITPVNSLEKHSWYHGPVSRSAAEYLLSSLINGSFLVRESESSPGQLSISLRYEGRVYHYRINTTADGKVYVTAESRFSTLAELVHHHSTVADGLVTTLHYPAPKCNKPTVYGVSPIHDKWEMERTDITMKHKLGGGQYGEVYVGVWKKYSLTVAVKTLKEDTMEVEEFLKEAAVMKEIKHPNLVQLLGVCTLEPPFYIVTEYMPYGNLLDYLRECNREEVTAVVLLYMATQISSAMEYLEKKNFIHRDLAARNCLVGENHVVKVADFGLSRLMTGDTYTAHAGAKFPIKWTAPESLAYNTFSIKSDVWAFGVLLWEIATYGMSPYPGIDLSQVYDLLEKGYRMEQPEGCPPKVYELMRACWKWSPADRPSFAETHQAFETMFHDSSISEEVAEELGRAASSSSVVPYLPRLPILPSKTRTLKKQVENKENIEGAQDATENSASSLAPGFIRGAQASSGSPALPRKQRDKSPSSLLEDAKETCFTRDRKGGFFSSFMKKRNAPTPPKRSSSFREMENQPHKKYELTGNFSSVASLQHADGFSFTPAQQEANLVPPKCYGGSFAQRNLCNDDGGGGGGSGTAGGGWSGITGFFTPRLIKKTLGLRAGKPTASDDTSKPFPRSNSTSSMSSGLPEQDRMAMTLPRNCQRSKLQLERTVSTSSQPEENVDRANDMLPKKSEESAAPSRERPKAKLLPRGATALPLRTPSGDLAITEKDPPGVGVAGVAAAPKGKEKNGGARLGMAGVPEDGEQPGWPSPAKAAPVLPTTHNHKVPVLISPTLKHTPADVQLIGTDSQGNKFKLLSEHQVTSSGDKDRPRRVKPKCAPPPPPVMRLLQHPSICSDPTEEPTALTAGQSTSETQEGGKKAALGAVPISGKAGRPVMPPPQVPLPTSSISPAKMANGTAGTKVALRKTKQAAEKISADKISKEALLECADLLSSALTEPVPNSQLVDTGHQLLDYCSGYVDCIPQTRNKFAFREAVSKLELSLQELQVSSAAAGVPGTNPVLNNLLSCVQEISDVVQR
smiles,measurement,setting,value
Nc1nccc(-c2c(-c3ccc(F)cc3)ncn2C2CCNCC2)n1,residual activity,ABL2 (human),95.1%
same,residual activity,ACVR1 (human),86.5%
same,residual activity,ADRBK1 (human),99.7%
same,residual activity,AKT3 (human),92.6%
same,residual activity,CAMK1 (human),107%
same,residual activity,CAMK1D (human),103%
same,residual activity,CAMK2B (human),97.7%
same,residual activity,CAMKK2 (human),110%
same,residual activity,CDK1 CCNA2 (human),92.7%
same,residual activity,CDK2 CCNE1 (human),92.1%
same,residual activity,CDK4 CCND1 (human),99.9%
same,residual activity,CDK4 CCND3 (human),104%
same,residual activity,CDK9 CCNT1 (human),87.1%
same,residual activity,CLK2 (human),99.7%
same,residual activity,CSNK1G3 (human),83.9%
same,residual activity,EGFR (human),94.4%
same,residual activity,EPHA7 (human),94%
same,residual activity,GRK6 (human),98.2%
same,residual activity,GRK7 (human),106%
same,residual activity,HIPK4 (human),96.6%
same,residual activity,IKBKE (human),99.5%
same,residual activity,LIMK1 (human),89.6%
same,residual activity,MAP3K14 (human),107%
same,residual activity,MAP4K5 (human),68.1%
same,residual activity,MARK1 (human),97.9%
same,residual activity,MET (human),104%
same,residual activity,MLTK (human),98%
same,residual activity,MST1R (human),100%
same,residual activity,NEK4 (human),99.5%
same,residual activity,NEK7 (human),98.9%
same,residual activity,NTRK3 (human),97.1%
same,residual activity,PHKG1 (human),98.3%
same,residual activity,PRKCB2 (human),79.4%
same,residual activity,PRKCE (human),105%
same,residual activity,PRKD1 (human),54.6%
same,residual activity,PRKG1 (human),88.2% and 97.7%
same,residual activity,PTK2 (human),94.1%
same,residual activity,STK10 (human),90.3%
same,residual activity,STK11 (human),89.1%
same,residual activity,STK39 (human),93.5%
same,residual activity,TGFBR1 (human),102%
same,residual activity,TSSK2 (human),100%
COc1cc2ncc(-c3ccccc3)nc2cc1OC,residual activity,ABL2 (human),94%
same,residual activity,ACVR1 (human),99.3%
same,residual activity,ADRBK1 (human),95.8%
same,residual activity,AKT3 (human),94.5%
same,residual activity,CAMK1 (human),90.4%
same,residual activity,CAMK1D (human),96.6%
same,residual activity,CAMK2B (human),93.3%
same,residual activity,CAMKK2 (human),114%
same,residual activity,CDK1 CCNA2 (human),94.8%
same,residual activity,CDK2 CCNE1 (human),85.4%
same,residual activity,CDK4 CCND1 (human),103%
same,residual activity,CDK4 CCND3 (human),97.5%
same,residual activity,CDK9 CCNT1 (human),83.2%
same,residual activity,CLK2 (human),87.4%
same,residual activity,CSNK1G3 (human),104%
same,residual activity,EGFR (human),82.9%
same,residual activity,EPHA7 (human),94.7%
same,residual activity,GRK6 (human),92.8%
same,residual activity,GRK7 (human),105%
same,residual activity,HIPK4 (human),86.4%
same,residual activity,IKBKE (human),98.9%
same,residual activity,LIMK1 (human),77.7%
same,residual activity,MAP3K14 (human),115%
same,residual activity,MAP4K5 (human),99.8%
same,residual activity,MARK1 (human),92.6%
same,residual activity,MET (human),92.6%
same,residual activity,MLTK (human),94.7%
same,residual activity,MST1R (human),84.2%
same,residual activity,NEK4 (human),101%
same,residual activity,NEK7 (human),102%
same,residual activity,NTRK3 (human),89.1%
same,residual activity,PHKG1 (human),92.4%
same,residual activity,PRKCB2 (human),88.8%
same,residual activity,PRKCE (human),87.9%
same,residual activity,PRKD1 (human),93.3%
same,residual activity,PRKG1 (human),77.1% and 96.2%
same,residual activity,PTK2 (human),100%
same,residual activity,STK10 (human),89.6%
same,residual activity,STK11 (human),86.8%
same,residual activity,STK39 (human),88%
same,residual activity,TGFBR1 (human),101%
same,residual activity,TSSK2 (human),85.7%
O=C1Nc2ccccc2/C1=C1/Nc2ccccc2/C1=N\OCCC(O)CO (stereo unspecified),residual activity,ABL2 (human),38.5%
same,residual activity,ACVR1 (human),199%
same,residual activity,ADRBK1 (human),101%
same,residual activity,AKT3 (human),92.9%
same,residual activity,CAMK1 (human),76%
same,residual activity,CAMK1D (human),80.3%
same,residual activity,CAMK2B (human),57.9%
same,residual activity,CAMKK2 (human),26%
same,residual activity,CDK1 CCNA2 (human),56.7%
same,residual activity,CDK2 CCNE1 (human),23.1%
same,residual activity,CDK4 CCND1 (human),96.4%
same,residual activity,CDK4 CCND3 (human),66.1%
same,residual activity,CDK9 CCNT1 (human),52.5%
same,residual activity,CLK2 (human),92%
same,residual activity,CSNK1G3 (human),90.7%
same,residual activity,EGFR (human),88.1%
same,residual activity,EPHA7 (human),71.4%
same,residual activity,GRK6 (human),53.1%
same,residual activity,GRK7 (human),70.3%
same,residual activity,HIPK4 (human),108%
same,residual activity,IKBKE (human),45.7%
same,residual activity,LIMK1 (human),39.5%
same,residual activity,MAP3K14 (human),89%
same,residual activity,MAP4K5 (human),15.5%
same,residual activity,MARK1 (human),60.5%
same,residual activity,MET (human),123%
same,residual activity,MLTK (human),76.4%
same,residual activity,MST1R (human),101%
same,residual activity,NEK4 (human),83.9%
same,residual activity,NEK7 (human),98.9%
same,residual activity,NTRK3 (human),1.01%
same,residual activity,PHKG1 (human),8.06%
same,residual activity,PRKCB2 (human),88%
same,residual activity,PRKCE (human),92.2%
same,residual activity,PRKD1 (human),72.7%
same,residual activity,PRKG1 (human),45.1% and 53%
same,residual activity,PTK2 (human),35%
same,residual activity,STK10 (human),52.1%
same,residual activity,STK11 (human),5.77%
same,residual activity,STK39 (human),79.3%
same,residual activity,TGFBR1 (human),102%
same,residual activity,TSSK2 (human),96.2%
